These results are taken from patent publication US20250346588A1, “IMIDAZOPYRIDINE AND OXAZOLOPYRIDINE DERIVATIVES AND ANALOGS THEREOF, METHODS OF PREPARATION THEREOF, METHODS OF HIF-1/2A PATHWAY INHIBITION, AND INDUCTION OF FERROPTOSIS” (KUDA THERAPEUTICS, INC., priority 2022, published 2025).

For one assay, the system named is 786-0 ccRCC cells. As to the kind of experiment: ICP-MS of cellular iron, zinc and copper. To be noted: 786-0 cells, 2.5 μM compound. Format: cell-based, human. Here is the method:
These studies were performed to determine the content of iron and other transition metals in cells after exposure the compounds described herein. 786-0 cells were seeded at 1.5 million cells/flask in T75 cm^2 flasks in DMEM+10% FBS, and allowed to adhere overnight. Cells were then treated with indicated concentrations of compounds in DMSO or DMSO alone (vehicle) for a further 24 h, after which cells were detached by trypsinization, counted, washed twice in phosphate-buffered saline (PBS) and pelleted. Experiments were performed using three replicate T75 cm^2 flasks per condition. A 5:1 mixture of nitric acid (OPTIMA Grade, 70%, Fisher Scientific) and ultrapure hydrogen peroxide (ULTREX II, 30%, Fisher Scientific) was added to cell pellets. This mixture was allowed to digest overnight, heated until dry, and resuspended in 2% nitric acid for analysis using an Agilent 7900 ICP-MS (Agilent Technologies, Santa Clara, CA). Calibration standard solutions for determination of Fe were prepared from Agilent multi-element calibration standard-2A. An Agilent Environmental Calibration Standard was used as an independent control. PBS-only control digestions were used to measure background. Metal readings were normalized to cell number. Data obtained from these studies for three replicate readings (with SEM) are shown in FIG. 3, which show an increase in cellular iron (Fe) content after treatment with indicated compounds.

A further assay addresses T1, ISCA2 (Homo sapiens, UniProt Q86U28).
T1 construct: His6 (N); made in house; host or cells: E. coli Rosetta (DE3)
T1 sequence (Q86U28 9-154): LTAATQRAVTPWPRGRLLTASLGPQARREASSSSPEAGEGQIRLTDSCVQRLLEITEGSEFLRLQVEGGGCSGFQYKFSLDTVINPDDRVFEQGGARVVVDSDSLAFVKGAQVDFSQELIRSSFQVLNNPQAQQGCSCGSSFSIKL
As to the kind of experiment: Thermal shift assay with recombinant ISCA2 (SYPRO Orange). Format: binding. As for the experimental part:
Thermal shift assays were performed by monitoring the change in protein melting temperature (Tm) in the absence or presence of test compounds, using the hydrophobic protein binding dye, SYPRO Orange (S6650, Thermo Fisher Scientific), measured using the LightCycler 480 (Roche Life Sciences, Indianapolis, IN) according to the manufacturer's protocol. Recombinant ISCA2 was produced by expressing amino acid residues 9-154 of ISCA2 (ISCA2 lacking its mitochondrial localization sequence) in the pET28 vector containing an N-terminal His6 tag in Rosetta (DE3) competent cells (Novagen, Millipore Sigma). ISCA2 production was induced by treating ISCA2 transformed log phase cells with 0.25 mM IPTG for 4 hours at 18° C. ISCA2 was purified using Ni^2+ affinity purification according to standard protocols and eluted in 50 mM Tris-C1 pH7.4, 150 mM NaCl, 5 mM DTT. Thermal shift assays were performed in 384-well plates using 1 μl of a 10× concentration of SYPRO Orange, 8 μl of ISCA2 (4 μg protein) and 1 μl of 1-2 mM stock of test compound per well. The LightCycler was used according to the following setup: LightCycler 480 Instrument Temperature Setup: First target of 20° C., with a Hold of 15 seconds; second target of 95° C., with Acquisition Mode of Continuous, and 10 acquisitions per degree c.; and third target of 20° C., with a Hold of 15 seconds. Tms were determined using Roche Protein Melting Analysis Software. Representative data are shown in FIGS. 6 and 7 using compound 1 and 26HCL at 200 and 100 µM final concentration respectively. […] These findings are supported by studies showing that re-expression of VHL (which increases ISCA2) and overexpression of ISCA2 itself, promotes the resistance of cells to the compounds (shown in FIG. 8).

For a further assay, the system named is HIF-1α and HIF-2α. As to the kind of experiment: Western blots for HIF-1α and HIF-2α in ccRCC cells. It counts as cell-based, human. To be noted: 786-0 or RCC10 ccRCC cells, 24h, relative to GAPDH. Here is the method: (§1) Western blots were performed to determine the effects of the compounds on levels of HIF-2α and other relevant proteins, whereas qPCR was performed to determine the effects of compounds on transcript levels of HIF target genes. 786-0 or RCC10 cells were plated at 1×10E5 cells/well in 2 ml DMEM with 10% FBS/well in 6-well tissue culture plates. Cells were allowed to adhere overnight in a humidified incubator at 37° C. with 5% CO2, after which the appropriate concentrations of compounds in DMSO were added. DMSO concentrations were kept constant in all wells. After 24 h exposure to the compounds, cells were lysed and subjected to western blotting according to standard protocols. Antibodies for HIF-1α and HIF-2α and GAPDH were purchased from Cell Signaling Technology (Danvers, MA), whereas antibodies to IRP2 and pVHL were from Santa Cruz Biotechnology (Dallas, TX), and GPX4 antibody was from R&D Systems, Inc (Minneapolis, MN). Representative data in FIG. 2 show a dose-dependent effect of compounds in decreasing HIF-1/2α. Compounds also impact cellular iron sensing given by increased IRP2, which taken together indicate that cells sense decreased amounts of available iron, which triggers the iron starvation response initiated by IRP2 stabilization. Representative data shown in FIG. 3D show a dose dependent effect of the compounds on GPX4, which may indicate decreased resistance to ferroptosis. […] The data also show increased expression of ISCA2 with pVHL re-expression.

Another assay concerns IRP2 and GPX4. As to the kind of experiment: Western blots for cellular iron-sensing machinery (IRP2, GPX4). It counts as cell-based, human. As for the experimental part: as §1
In general terms: In western blotting, separated proteins are transferred to a membrane and probed.

The next assay has as its system 786-0 cells. As to the kind of experiment: TBARS assay of lipid peroxidation (MDA). It counts as cell-based, human. To be noted: 48h treatment. As for the experimental part:
Malondialdehyde (MDA) is an end product of lipid peroxidation products and can be used to indicate lipid peroxidation, which is a hallmark of ferroptosis. MDA adducts were quantitated in cells and tumor tissue using the TBARS-TCA Method kit (Cat 700870, Cayman Chemicals, Ann Arbour Michigan) according to the manufacturer's protocol. Briefly, 786-0 cells were seeded at 1.75×10E6 cells in T75 cm^2 flasks, allowed to adhere overnight in a humidified incubator at 37° C. with 5% CO2, then treated with test compounds for 48 h, RSL3 (as positive control for 6h) or DMSO control (volume of DMSO kept constant for all flasks). Cells were detached by trypsinization, pelleted by centrifugation, washed in PBS twice, resuspended in 200 μL PBS, then sonicated for 3 minutes in a sonicating water bath. Representative data showing effects of 26HCL or 62TFA in comparison to RSL3, a classical ferroptosis inducer, is shown in FIG. 5. For MDA quantitation in tumor chunks, 20-50 mg of tumor tissue was homogenized in 200-500 μL of PBS, then sonicated for 5 minutes in a sonicating water bath. The cell or tumor lysates were subjected to the colorimetric detection methods described in manufacturer's protocol. MDA concentration of cells was determined in comparison to a standard curve of MDA stock solution provided by the manufacturer. Data was plotted using Prism GraphPad 9.3.1 Software. […]

On to `COc1ccc(-c2nnc(Nc3nc4c(OC)nccc4[nH]3)o2)cc1OC` [Compound 26HCL, N-(4-Methoxy-1H-imidazo[4,5-c]pyridin-2-yl)-5-(3,4-dimethoxyphenyl)-1,3,4-oxadiazol-2-amine], for which the “cellular iron (Fe), zinc (Zn) and copper (Cu) content” value in the assay with 786-0 ccRCC cells is “increases the content of iron, zinc and copper in cells”. Besides, the “Tm of ISCA2 in compound-treated wells” value on ISCA2 (100 μM compound, control wells 55.02±0.2) came to 56.3±0.02 °C. For the same compound, the “change in melting temperature of ISCA2 (in words)” value at ISCA2 (compound 1 and 26HCL at 200 and 100 μM final concentration respectively) was “significant change in melting temperature of ISCA2”. For the same compound, the “effect on HIF-1α and HIF-2α protein (Western blot)” value in the assay with HIF-1α and HIF-2α was “decreases HIF-1α and HIF-2α”. Moreover, the “effect on IRP2 protein (Western blot)” value in the assay with IRP2 and GPX4 (786-0 or RCC10 ccRCC cells, 24h, relative to GAPDH) was “increases IRP2”. Besides, in the assay with IRP2 and GPX4 (higher concentrations of compound, FIG. 3D), the “effect on IRP2 and GPX4 protein (Western blot)” value is “decrease in IRP2 and GPX4”. The “lipid peroxidation (MDA-TBA adducts)” value in the assay with 786-0 cells is “induce lipid peroxidation to an extent comparable to the ferroptosis inducer RSL3”.
